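A five-concentration, 48-hour dose response in 96-well plates underlies each endpoint, interpolated linearly between surrounding concentrations. Abbreviation: GI50, concentration required for 50% inhibition of growth.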 Activity calls are given as the source filed them. No stated cut-off is given here; in the data, active = GI50 up to about 1.1 µM and inactive = higher.
Legend:
Test in all cases: NCI anticancer screen, dose series, 48 h
786-0 = tested on: 786-0
A498 = tested on: A498
A549 = tested on: A549
ACHN = tested on: ACHN
CAKI-1 = tested on: CAKI-1
CCRF-CEM = tested on: CCRF-CEM
COLO 205 = tested on: COLO 205
DLD-1 = tested on: DLD-1
DMS-114 = tested on: DMS-114
DMS-273 = tested on: DMS-273
EKVX = tested on: EKVX
HCT-116 = tested on: HCT-116
HCT-15 = tested on: HCT-15
HL-60 = tested on: HL-60
HOP-18 = tested on: HOP-18
HOP-92 = tested on: HOP-92
HT-29 = tested on: HT-29
IGROV-1 = tested on: IGROV-1
K562 = tested on: K562
KM-20L2 = tested on: KM-20L2
LOX IMVI = tested on: LOX IMVI
LXFL 529 = tested on: LXFL 529
M14 = tested on: M14
M19-MEL = tested on: M19-MEL
MOLT-4 = tested on: MOLT-4
NCI-H23 = tested on: NCI-H23
NCI-H460 = tested on: NCI-H460
NCI-H522 = tested on: NCI-H522
OVCAR-8 = tested on: OVCAR-8
RPMI-8226 = tested on: RPMI-8226
RXF 393 = tested on: RXF 393
RXF 631 = tested on: RXF 631
SF-268 = tested on: SF-268
SF-295 = tested on: SF-295
SF-539 = tested on: SF-539
SK-MEL-28 = tested on: SK-MEL-28
SK-MEL-5 = tested on: SK-MEL-5
SK-OV-3 = tested on: SK-OV-3
SN12C = tested on: SN12C
SNB-19 = tested on: SNB-19
SW-620 = tested on: SW-620
TK-10 = tested on: TK-10
U-251 = tested on: U-251
UACC-62 = tested on: UACC-62
UO-31 = tested on: UO-31
XF498 = tested on: XF498

## COc1ccc(/C=C/C(=O)c2c(-c3ccccc3)nn(C)c(=O)c2N2CCOCC2)cc1
786-0
  GI50: > 100 µM (inactive)
A498
  GI50: > 100 µM (inactive)
A549
  GI50: > 100 µM (inactive)
ACHN
  GI50: > 100 µM (inactive)
CAKI-1
  GI50: > 100 µM (inactive)
CCRF-CEM
  GI50: 63 µM (inactive)
COLO 205
  GI50: > 100 µM (inactive)
DLD-1
  GI50: > 100 µM (inactive)
DMS-114
  GI50: > 100 µM (inactive)
DMS-273
  GI50: > 100 µM (inactive)
EKVX
  GI50: > 100 µM (inactive)
HCT-116
  GI50: 54.2 µM (inactive)
HCT-15
  GI50: 65.9 µM
HL-60
  GI50: 21.4 µM (inactive)
HOP-18
  GI50: > 100 µM (inactive)
HOP-92
  GI50: 6.92 µM (inactive)
HT-29
  GI50: > 100 µM (inactive)
IGROV-1
  GI50: > 100 µM (inactive)
K562
  GI50: 40.5 µM (inactive)
KM-20L2
  GI50: 60.3 µM (inactive)
LOX IMVI
  GI50: 68.1 µM (inactive)
LXFL 529
  GI50: > 100 µM (inactive)
M14
  GI50: > 100 µM (inactive)
M19-MEL
  GI50: > 100 µM (inactive)
MOLT-4
  GI50: 43.5 µM (inactive)
NCI-H23
  GI50: > 100 µM (inactive)
NCI-H460
  GI50: > 100 µM (inactive)
NCI-H522
  GI50: > 100 µM (inactive)
OVCAR-8
  GI50: > 100 µM (inactive)
RPMI-8226
  GI50: 38.5 µM (inactive)
RXF 393
  GI50: > 100 µM (inactive)
RXF 631
  GI50: > 100 µM (inactive)
SF-268
  GI50: > 100 µM (inactive)
SF-295
  GI50: > 100 µM (inactive)
SF-539
  GI50: > 100 µM (inactive)
SK-MEL-28
  GI50: > 100 µM (inactive)
SK-MEL-5
  GI50: 97.9 µM (inactive)
SK-OV-3
  GI50: > 100 µM (inactive)
SN12C
  GI50: > 100 µM (inactive)
SNB-19
  GI50: > 100 µM (inactive)
SW-620
  GI50: > 100 µM (inactive)
TK-10
  GI50: > 100 µM (inactive)
U-251
  GI50: > 100 µM (inactive)
UACC-62
  GI50: > 100 µM (inactive)
UO-31
  GI50: > 100 µM (inactive)
XF498
  GI50: 0.0601 µM (active)

Source: ChEMBL document CHEMBL1201862, “PubChem BioAssay data set” (2004)
